Key:
[1] = molecular target: Aldo-keto reductase family 1 member A1 (Rattus norvegicus, UniProt P51635); assay: Inhibition of Fischer 344 rat kidney ALR1 using sodium D-glucuronate as substrate measured up to 4 mins at […] using NaHCO3/DMSO-dissolved compound by spectrophotometric analysis
[2] = molecular target: Aldo-keto reductase family 1 member B1 (Rattus norvegicus, UniProt P07943); assay: Inhibition of Fischer 344 rat eye lens ALR2 using D,L-glyceraldehyde as substrate measured up to 4 mins at 30 degC using NaHCO3/DMSO-dissolved compound by spectrophotometric analysis
Rattus norvegicus = species on record: Rattus norvegicus; assay: Selectivity index, ratio of IC50 for Fischer 344 rat kidney ALR1 using sodium D-glucuronate as substrate measured up to 4 mins at 30 degC to IC50 for Fischer 344 rat eye lens ALR2 using D,L-glyceraldehyde as substrate measured up to 4 mins at 30 degC; settings: time min <=4
[3] = molecular target: Aldo-keto reductase family 1 member B1 (Rattus norvegicus) (UniProt P07943); assay: Inhibition of Fischer 344 rat eye lens ALR2 using D,L-glyceraldehyde as substrate measured up to 4 mins at 30 degC NaHCO3/DMSO-dissolved compound at 100 uM by spectrophotometric analysis relative to control; settings: time min <=4

Chain of Aldo-keto reductase family 1 member A1 (P51635 whole entry, looked up): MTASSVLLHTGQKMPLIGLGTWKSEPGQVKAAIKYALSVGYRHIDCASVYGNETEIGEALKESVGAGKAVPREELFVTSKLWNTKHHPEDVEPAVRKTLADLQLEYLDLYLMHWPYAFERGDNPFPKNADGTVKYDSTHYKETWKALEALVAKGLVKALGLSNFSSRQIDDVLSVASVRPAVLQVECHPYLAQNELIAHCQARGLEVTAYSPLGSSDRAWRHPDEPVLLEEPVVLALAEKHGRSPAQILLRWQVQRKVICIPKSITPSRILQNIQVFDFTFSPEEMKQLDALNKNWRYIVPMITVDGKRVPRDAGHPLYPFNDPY

Compound	IC50 [1]	IC50 [2]	Ratio IC50 (Rattus norvegicus)	inhibition [3]
O=S(=O)(c1cc2ccccc2[nH]1)c1ccccc1O	–	–	–	12.3%
O=S(=O)(c1ccc(O)cc1)c1c[nH]c2ccccc12	–	59.6 µM	–	–
O=S(=O)(c1ccccc1O)c1c[nH]c2ccccc12	–	–	–	14.6%

Now from value to molecule:

IC50 [1]	IC50 [2]	Ratio IC50 (Rattus norvegicus)	inhibition [3]	Compound
4.73 µM	4.51 µM	1.05	–	O=S(=O)(c1ccc(O)cc1)n1ccc2ccccc21
11.7 µM	0.98 µM	11.9	–	O=S(=O)(c1ccc(O)c(F)c1)n1ccc2ccccc21
–	37.3 µM	–	–	O=S(=O)(c1ccc(O)cc1)c1cc2ccccc2[nH]1
–	14.2 µM	–	–	O=S(=O)(c1ccccc1O)n1ccc2ccccc21

Reference: ChEMBL document CHEMBL4725281, “Design synthesis and evaluation of novel aldose reductase inhibitors: The case of indolyl-sulfonyl-phenols” (Bioorg Med Chem, 2020)
